Earlier results on four compounds are cited in US20090081697A1, “Methods of growing crystals of free and antibiotic complexed large ribosomal subunits, and methods of rationally designing or identifying antibiotics using structure coordinate data derived from such crystals” (Yeda Research and Development Co. Ltd., priority 2001, published 2009).

Structures are written as SMILES.

Series [1] deals with ribosomes. The settings on record: compared with erythromycin; Hansen et al. 1999.
For series [2] the following is noted: relative to erythromycin.
Series [3] concerns ribosomes. The settings on record: Tenson et al. 1996.

Consider `CC[C@H]1OC(=O)[C@H](C)C(=O)[C@H](C)[C@@H](O[C@@H]2O[C@H](C)C[C@H](N(C)C)[C@H]2O)[C@](C)(OC)C[C@@H](C)C(=O)[C@H](C)[C@@H](O)[C@]1(C)O` [RU56006], for which the Kd result on ribosomes [1] is “of the same order of magnitude as that of erythromycin”.

On to `CC[C@H]1OC(=O)[C@H](C)[C@@H](O[C@H]2C[C@@](C)(OC)[C@@H](O)[C@H](C)O2)[C@H](C)[C@@H](O[C@@H]2O[C@H](C)C[C@H](N(C)C)[C@H]2O)[C@](C)(OC)C[C@@H](C)C(=O)[C@H](C)[C@@H](O)[C@]1(C)O` [clarithromycin], for which the acid stability result in series [2] is recorded as “increased acid stability relative to erythromycin”.

Consider `CC[C@H]1OC(=O)[C@H](C)[C@@H](O[C@H]2C[C@@](C)(OC)[C@@H](O)[C@H](C)O2)[C@H](C)[C@@H](O[C@@H]2O[C@H](C)C[C@H](N(C)C)[C@H]2O)[C@](C)(O)C[C@@H](C)/C(=N\OCOCCOC)[C@H](C)[C@@H](O)[C@]1(C)O` [roxithromycin], for which the acid stability entry in series [2] is “increased acid stability relative to erythromycin”.

Consider `CC[C@H]1OC(=O)[C@H](C)[C@@H](O[C@H]2C[C@@](C)(OC)[C@@H](O)[C@H](C)O2)[C@H](C)[C@@H](O[C@@H]2O[C@H](C)C[C@H](N(C)C)[C@H]2O)[C@](C)(O)C[C@@H](C)C(=O)[C@H](C)[C@@H](O)[C@]1(C)O` [erythromycin], for which the “length of peptides produced by erythromycin-bound ribosomes” value in the series with ribosomes [3] is listed as “up to 8 residues”.
